The subject of one series is E. faecalis ATCC 29212. The series is described as follows: ROS production test (CellROX Orange, flow cytometry). The format is cell-based, Enterococcus faecalis. To be noted: 6.25 or 12.5 μg/ml. As for the experimental part: The bacterial strains methicillin-sensitive S. aureus (MSSA) ATCC 29213, E. faecalis ATCC 29212, E. coli ATCC 25922 were cultured in MHB at 37° C. 50 μL of different concentration of Se NPs, Se NP-ε-PL or pure ε-PL in PBS solution was added into each well of a 96-well microplate. 50 μL MHB with 2.5×10^6 cells/mL bacteria was then added into each well. After 90 min incubation at 37° C., CellROX® Orange Reagent was added into each well at a final concentration of 750 nM. The cells were incubated for a further 1 h. The fluorescence from the CellROX Orange Reagent was measured on FL-3 (red fluorescence channel) using the Cell Lab Quanta SC MPL flow cytometer (Beckman Coulter). Two independent experiments were done for this test, and two technical replicates were adopted for each independent experiment.
A general note: A flow cytometer gives signals particle by particle.

For series [1], the system named is multidrug-resistant K. pneumoniae (MDR). The series is described as follows: CFU measuring assay / MBC calculation. The format is cell-based, Klebsiella pneumoniae. Particulars: 90 min at 37° C., linear regression, mean ± s.d. Here is the method:
(§1) For the CFU measuring assay, 50 μL of different concentrations of Se NPs, Se NP-ε-PL or pure ε-PL in PBS solution was added into each well of 96-well microplates, then 50 μL MHB with 2.5×10^6 cells/mL bacteria were added into each well. After incubating the microplate at 37° C. for 90 min, the bacterial solutions were diluted 10^−1, 10^−2, 10^−3 and 10^−4 times, then 10 μL of each dilution was transferred onto agar plates with MHB. The agar plates were incubated overnight, before the bacterial colony forming units were observed and measured.
(§2) Concentration-killing curves were plotted with CFUs/mL as a function of antibacterial agent concentration, and linear regression analysis was used to determine the lowest concentration (MBC) at which the CFU/mL becomes zero.

The test system of the next series is mice. Particulars: dosage of 5 g/kg; cited from earlier work.
For series [2], the system named is Gram-negative cells (E. coli, A. baumannii and K. pneumoniae). The series can be described thus: Helium ion microscopy (HIM) of treated bacteria. The format is cell-based. Particulars: 90 min incubation. Here is the method: The morphologies of bacterial strains methicillin-sensitive S. aureus (MSSA) ATCC 29213, E. faecalis ATCC 29212, E. coli ATCC 25922, A. baumannii 2208 ATCC19606 and K. pneumoniae ATCC 13883 after treatment with Se NPs, Se NP-ε-PL or pure ε-PL were observed using Helium Ion Microscopy (HIM, Zeiss, Germany). The samples were prepared in the following steps. First, 100 μL of 125 μg/mL Se NPs, Se NP-ε-PL or pure ε-PL in PBS solution was added to each well of 96-well microplates, 100 μL pure PBS was used as untreated control. Afterwards, 100 μL MHB with 1.25×10^7/mL bacteria was added to each well. After 90 min incubation, 10 μL of both treated and untreated bacteria was dropped on clean silicon wafers, and they were then dried at 37° C. for 20 min. The dried samples were transferred to a 12-well plate, 2.5% glutaraldehyde was added to each well to fix the bacteria cells for 1 h, then gradient ethanol solution (30%, 50%, 60%, 70%, 80%, 90%, 95% and 100%) was used for dehydration. The prepared samples were dried in the fume hood overnight before use.

The test system of series [3] is all tested bacterial strains (S. aureus, E. faecalis, E. coli, A. baumannii, P. aeruginosa, K. pneumoniae). The series is described as follows: Membrane disruption test (PI-positive cells). The format is cell-based. Particulars: 6.25 or 12.5 μg/ml, 90 min. As for the experimental part:
The bacterial strains methicillin-sensitive S. aureus ATCC 29213, E. faecalis ATCC 29212, E. coli ATCC 25922, A. baumannii 2208 ATCC19606, P. aeruginosa strain PAO1-LAC ATCC 47085 and K. pneumoniae ATCC 13883 were cultured in MHB at 37° C. 50 μL of different concentrations of Se NPs, Se NP-ε-PL or pure ε-PL in PBS solution was added into each well of 96-well microplates. 50 μL MHB with 2.5×10^6 cells/mL bacteria was then added into each well. 50 μL MHB with 2.5×10^6 cells/mL bacteria was added to 50 μL PBS to act as untreated control. After 90 min incubation at 37° C., 0.1% of a green-fluorescent nucleic acid stain (SYTO 9, Thermo Fisher Scientific) and 0.1% of propidium iodide (PI) were added to each well and incubated again for 5 min. SYTO 9 can stain both live and dead Gram-positive and Gram-negative bacteria. PI is a red-florescent nuclear and chromosome counterstain but is not permeant to cells with intact plasma membranes. A Cell Lab Quanta SC MPL flow cytometer (Beckman Coulter) was adopted to measure the percent of PI-positive cells. Two independent tests were performed, and two parallel samples were used in each test for each variation.

In series [4] the test system is Enterococcus faecalis (E. faecalis) ATCC 29212. The series is described as follows: CFU measuring assay / MBC calculation. The format is cell-based. To be noted: 90 min at 37° C., linear regression, mean ± s.d. As for the experimental part:
as §1, §2

Series [5] has as its system Acinetobacter baumannii (A. baumannii) 2208 ATCC19606. The series can be described thus: CFU measuring assay / MBC calculation. To be noted: 90 min at 37° C., linear regression, mean ± s.d. The format is cell-based. As for the experimental part: as §1, §2
The test system of series [6] is methicillin-sensitive Staphylococcus aureus (S. aureus) ATCC 29213. The series is described as follows: CFU measuring assay / MBC calculation. Particulars: 90 min at 37° C., linear regression, mean ± s.d. The format is cell-based. As for the experimental part: as §1, §2
In series [7] the test system is Escherichia coli (E. coli) ATCC 25922. The series is described as follows: CFU measuring assay / MBC calculation. Particulars: 90 min at 37° C., linear regression, mean ± s.d. The format is cell-based. As for the experimental part: as §1, §2
In series [8] the test system is methicillin-resistant Staphylococcus aureus (MRSA) ATCC 43300. The series is described as follows: CFU measuring assay / MBC calculation. The format is cell-based. Particulars: 90 min at 37° C., linear regression, mean ± s.d. As for the experimental part: as §1, §2
In series [9] the test system is Klebsiella pneumoniae (K. pneumoniae) ATCC 13883. The series can be described thus: CFU measuring assay / MBC calculation. The format is cell-based. Particulars: 90 min at 37° C., linear regression, mean ± s.d. Here is the method:
as §1, §2

Series [10] deals with Pseudomonas aeruginosa (P. aeruginosa) strain PAO1-LAC ATCC 47085. The series can be described thus: CFU measuring assay / MBC calculation. The format is cell-based. To be noted: 90 min at 37° C., linear regression, mean ± s.d. As for the experimental part: as §1, §2

On to ε-poly-L-lysine [ε-PL], for which the “ROS production (high ROS production cells)” value in the series with E. faecalis ATCC 29212 was “almost no promoting effects on ROS production”. Further, the MBC (as a rule, the lowest tested concentration that kills the bacteria rather than only halting them) in series [1] is 24.7 ± 0.5 µg/mL; in [4], 134 ± 10 µg/mL; in [5] it was 50.0 ± 0.2 µg/mL; in series [6], 50.6 ± 3.5 µg/mL; in series [7], 24.3 ± 1.2 µg/mL; in series [8], 149 ± 37 µg/mL. For the same substance, the MBC was 12.9 ± 0.4 µg/mL in [9] and 25.0 ± 0.1 µg/mL in [10]. The “mortality, acute oral toxicity” value in the series on mice was “no mortality”. Besides, in series [2], the “cell morphology after treatment (HIM)” value is “membranes of E. coli, A. baumannii and K. pneumoniae cells were disrupted”. The “cell membrane disruption (PI positive cells)” value in series [3] is listed as “membrane disruption effects”.
